According to PubChem BioAssay AID2060497 (Molecular Pharmacology Branch, DTP, NCI, 2025):

Tested on: 317291-083-R-J1-PDC complex spheroids, viability
Test: Anticancer human tumor 317291-083-R-J1-PDC patient-derived soft tissue sarcoma cell line growth inhibition [GQUAD]
Settings: for IC50: curve of first compound; for viability, T/C: stronger effect = lower value
Text: DNA G-quadruplex Stabilizer Agents in Combinations in Complex Spheroids
A high-throughput screen of multi-cell type tumor spheroids was designed to identify active combinations of DNA G-quadruplex stabilizer agents and targeted small molecules. Complex spheroids include a stromal component modeled by human endothelial cells (HUVEC) and fibroblasts modeled by human mesenchymal stem cells (MSCs). The concentration ranges selected for each drug and investigational agent were based upon clinically achievable concentrations if the clinical Cmax of the agent was known.
Compounds. The drugs and investigational agents: pidnarulex (CX-5461; NSC782164), APTO-253 (NSC789042), BRACO-19 (NSC847499), peposertib (NSC802822), ceralasertib (NSC780249), elimusertib (NSC800525), camonsertib (NSC841442), AZD-1390 (NSC803789), olaparib (NSC753686), talazoparib (NSC767125), ART-558 (NSC835418), sotorasib (NSC818433), MRTX-1133 (NSC836407), SN-38 (NSC673596), topotecan (NSC609699), etoposide (NSC141540), doxorubicin (NSC123127), gemcitabine (NSC613327), 5-fluorouracil (NSC19893), paclitaxel (NSC125973), vemurafenib (NSC761431), panobinostat (NSC761190), R-306465 (JNJ-16241199; NSC773264), adavosertib (NSC754352), TP-3654 (NSC805149), carboplatin (NSC241240), KSQ-4279 (NSC840948), and staurosporine (NSC755774) were obtained from the National Cancer Institute (NCI) Developmental Therapeutics Program Chemical Repository (34). The FDA-approved anticancer drug set is available from the NCI Developmental Therapeutics Program. […] The stock solutions were prepared in dimethyl sulfoxide (DMSO, Sigma-Aldrich, St. Louis, MO, cat. D2650) at 800-fold the tested concentration and stored at -70 degrees C prior to their use. All drugs and investigational agents were tested over a range starting from a high concentration at or near the clinical Cmax and decreasing in half-log increments. If the clinical Cmax for an agent had not been determined, the highest concentration tested was 10 microM.
2.3 Cell Culture. All cells were maintained in an incubator at 37 degrees C and 5% CO2 with 95% humidity. The PDC lines were cultured according to standard operating procedures established by the NCI PDMR. All PDCs were thawed and cultured in Matrigel-coated flasks prepared with a working solution of 1X Ham's F-12 nutrient mix, without supplementation (Invitrogen, cat. 11765054), 100 U/mL penicillin-streptomycin (Invitrogen, cat. 15140122), and 2.5% Matrigel (Corning Inc., cat. 354248) for the first three passages. The 857933-349-R-J2-PDC line was cultured in 6C/Colon 1B media, which includes advanced DMEM/F-12 (Thermo Fisher Scientific, cat. 12634028), 10 mM HEPES (Thermo Fisher Scientific, cat. 15630080), 1X GlutaMAX supplement (Thermo Fisher Scientific, cat. 35050061), 0.1 mg/mL primocin (InvivoGen, cat. ant-pm-2), 10% defined fetal bovine serum, heat inactivated (HyClone Laboratories Inc., cat. SH30070.03HI), 50% L-WRN conditioned media (ATCC, cat. CRL-3276), 1.25 mM N-Acetyl-L-cysteine (Sigma-Aldrich, cat. A9165), 10 mM nicotinamide (Sigma-Aldrich, cat. N0636), 1X B-27 supplement (Thermo Fisher Scientific, cat. 17504044), 1X N-2 supplement (Thermo Fisher Scientific, cat. 17502048), 10 microM Y-27632 dihydrochloride (Tocris Bioscience, cat. 1254), and 50 ng/mL human EGF recombinant protein (Thermo Fisher Scientific, cat. PHG0311). The 485176-168-R4-J1-PDC line was cultured in Panc media, which includes all 6C/Colon 1B media components plus 100 ng/mL human FGF-10 (Thermo Fisher Scientific, cat. 100-26), 500 nM SB-431542 (Selleckchem, cat. S1067), and gastrin (Tocris, cat. 3006).
[…]

[1] = second compound 0.0316 µM, first compound 0.0316 µM
[2] = second compound 0.0316 µM, first compound 0.316 µM
[3] = second compound 0.1 µM, first compound 0.0316 µM
[4] = second compound 0.1 µM, first compound 0.316 µM
[5] = second compound 0.316 µM, first compound 0.0316 µM
[6] = second compound 0.316 µM, first compound 0.316 µM
[7] = second compound 1 µM, first compound 0.0316 µM
[8] = second compound 1 µM, first compound 0.316 µM
[9] = second compound 3.16 µM, first compound 0.0316 µM
[10] = second compound 3.16 µM, first compound 0.316 µM
[11] = second compound 10 µM, first compound 0.0316 µM
[12] = second compound 10 µM, first compound 0.316 µM
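Further: spheroids exposed to compounds for one week before readout.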
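Wherever viability, T/C is given: percent viability relative to DMSO vehicle wells taken as 100%.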

Cc1[nH]c2ccccc2c1CCNCc1ccc(/C=C/C(=O)NO)cc1 + Cc1[nH]c2ccc(F)cc2c1-c1nc2c3cccnc3c3ncccc3c2[nH]1
IC50 (second compound 0.0316 µM): 43.4 nM | IC50 (second compound 0.1 µM): 48.1 nM | IC50 (second compound 0.316 µM): 12.1 nM | IC50 (second compound 1 µM): 4.07 nM | IC50 (second compound 3.16 µM): 1.08 nM | IC50 (second compound 10 µM): < 0.999 nM | viability, T/C (second compound 0.0316 µM, first compound 0.000999 µM): 114% | viability, T/C (second compound 0.0316 µM, first compound 0.00316 µM): 96.7% | viability, T/C (second compound 0.0316 µM, first compound 0.00999 µM): 96.9% | viability, T/C [1]: 67% | viability, T/C (second compound 0.0316 µM, first compound 0.0999 µM): 6.7% | viability, T/C [2]: 0.62% | viability, T/C (second compound 0.1 µM, first compound 0.000999 µM): 93.4% | viability, T/C (second compound 0.1 µM, first compound 0.00316 µM): 93.3% | viability, T/C (second compound 0.1 µM, first compound 0.00999 µM): 85.2% | viability, T/C [3]: 74% | viability, T/C (second compound 0.1 µM, first compound 0.0999 µM): 8.53% | viability, T/C [4]: 0.12% | viability, T/C (second compound 0.316 µM, first compound 0.000999 µM): 73.3% | viability, T/C (second compound 0.316 µM, first compound 0.00316 µM): 68.5% | viability, T/C (second compound 0.316 µM, first compound 0.00999 µM): 53.9% | viability, T/C [5]: 28.9% | viability, T/C (second compound 0.316 µM, first compound 0.0999 µM): 6.05% | viability, T/C [6]: 0.16% | viability, T/C (second compound 1 µM, first compound 0.000999 µM): 59.9% | viability, T/C (second compound 1 µM, first compound 0.00316 µM): 51% | viability, T/C (second compound 1 µM, first compound 0.00999 µM): 39.7% | viability, T/C [7]: 15.5% | viability, T/C (second compound 1 µM, first compound 0.0999 µM): 3.36% | viability, T/C [8]: 0.14% | viability, T/C (second compound 3.16 µM, first compound 0.000999 µM): 51.5% | viability, T/C (second compound 3.16 µM, first compound 0.00316 µM): 39% | viability, T/C (second compound 3.16 µM, first compound 0.00999 µM): 19.9% | viability, T/C [9]: 27.9% | viability, T/C (second compound 3.16 µM, first compound 0.0999 µM): 1.59% | viability, T/C [10]: 0.17% | viability, T/C (second compound 10 µM, first compound 0.000999 µM): 48.7% | viability, T/C (second compound 10 µM, first compound 0.00316 µM): 49% | viability, T/C (second compound 10 µM, first compound 0.00999 µM): 51.4% | viability, T/C [11]: 13.5% | viability, T/C (second compound 10 µM, first compound 0.0999 µM): 3.62% | viability, T/C [12]: 0.24%

CCCS(=O)(=O)Nc1ccc(F)c(C(=O)c2c[nH]c3ncc(-c4ccc(Cl)cc4)cc23)c1F + Cc1cnc(CNC(=O)c2c(=O)c3ccc(N4CCCN(C)CC4)nc3n3c2sc2ccccc23)cn1
IC50 (second compound 0.0316 µM): 4020 nM | IC50 (second compound 0.1 µM): 3920 nM | IC50 (second compound 0.316 µM): 179 nM | IC50 (second compound 1 µM): < 31.6 nM | IC50 (second compound 3.16 µM): < 31.6 nM | IC50 (second compound 10 µM): < 31.6 nM | viability, T/C [1]: 89.2% | viability, T/C (second compound 0.0316 µM, first compound 0.1 µM): 100% | viability, T/C [2]: 99.8% | viability, T/C (second compound 0.0316 µM, first compound 1 µM): 91.3% | viability, T/C (second compound 0.0316 µM, first compound 3.16 µM): 60.6% | viability, T/C (second compound 0.0316 µM, first compound 10 µM): 9.94% | viability, T/C [3]: 64.3% | viability, T/C (second compound 0.1 µM, first compound 0.1 µM): 56.2% | viability, T/C [4]: 67.1% | viability, T/C (second compound 0.1 µM, first compound 1 µM): 49.9% | viability, T/C (second compound 0.1 µM, first compound 3.16 µM): 59.4% | viability, T/C (second compound 0.1 µM, first compound 10 µM): 9.77% | viability, T/C [5]: 43% | viability, T/C (second compound 0.316 µM, first compound 0.1 µM): 68.4% | viability, T/C [6]: 43.6% | viability, T/C (second compound 0.316 µM, first compound 1 µM): 38.1% | viability, T/C (second compound 0.316 µM, first compound 3.16 µM): 37.5% | viability, T/C (second compound 0.316 µM, first compound 10 µM): 16.5% | viability, T/C [7]: 55.6% | viability, T/C (second compound 1 µM, first compound 0.1 µM): 23.6% | viability, T/C [8]: 43.1% | viability, T/C (second compound 1 µM, first compound 1 µM): 18.8% | viability, T/C (second compound 1 µM, first compound 3.16 µM): 19.7% | viability, T/C (second compound 1 µM, first compound 10 µM): 5.79% | viability, T/C [9]: 10.6% | viability, T/C (second compound 3.16 µM, first compound 0.1 µM): 11.7% | viability, T/C [10]: 10.6% | viability, T/C (second compound 3.16 µM, first compound 1 µM): 11.8% | viability, T/C (second compound 3.16 µM, first compound 3.16 µM): 21.4% | viability, T/C (second compound 3.16 µM, first compound 10 µM): 0.18% | viability, T/C [11]: 10.2% | viability, T/C (second compound 10 µM, first compound 0.1 µM): 6.4% | viability, T/C [12]: 24.3% | viability, T/C (second compound 10 µM, first compound 1 µM): 8.2% | viability, T/C (second compound 10 µM, first compound 3.16 µM): 16.7% | viability, T/C (second compound 10 µM, first compound 10 µM): 8.36%
